test system: B16 melanoma cells; assay: B16 melanoma test (test 1); type: cell-based; conditions: Mus musculus, 50 /ug/ml, aqueous suspension, incubation 20 hours, cells counted 48 hours after start
Method: B16 melanoma cells grow as a "mono]ayer". The doubling time of these cells in a cell culture is 12-16 hours.
On day 0, a quantity of […] B16 melanoma cells is introduced in each cell culture dish.
On day 1 the compounds to be examined are vortexed in the presence of glass beads. The compound to be tested is then added to the dishes with melanoma celles in the desired quantity. The incubation takes place at 37°C for 20 hours in a C02 incubator. The incubation is terminated by removing the culture medium with therein the compound to be tested, after which the cells are wahsed once and fresh medium is added.
Forty-eight hours after the beginning of the incubation the quantity of cells in each dish is measured by means of a microcell Coulter Counter. The results thus obtained are expressed by indicating the activity of the compounds by 1+, 2+, 3+, 4+ or 5+ having the following meanings: • 1+: cell growth is inhibited by 1-20% with respect to the control test • 2+: cell growth is inhibited by 21-40% with respect to the control test • 3+: cell growth is inhibited by 41-60% with respect to the control test • 4+: cell growth is inhibited by 61-80% with respect to the control test • 5+: cell growth is inhibited by 81-100% with respect to the control test.
Sensitivity of B16 melanoma cells.
In the above-described manner, various compounds according to the invention were tested in dosages of 50 /ug/ml in the form of an aqueous suspension.

Row | Structure (SMILES) | inhibition at 50 µg/mL
1 | O=C(NC(=O)c1c(O)cccc1Cl)Nc1c(F)c(F)c(F)c(F)c1F [compound 1] | 61 to 80%
2 | O=C(NC(=O)c1c(F)c(F)c(F)c(F)c1F)Nc1ccc(O)c(C(F)(F)F)c1 [compound 2] | 81 to 100%
3 | CN(C)c1cccc(F)c1C(=O)NC(=O)Nc1ccc(Cl)cc1 [compound 3] | 81 to 100%
4 | O=C(NC(=O)c1c(F)cccc1F)Nc1ccc(C(O)(C(F)(F)F)C(F)(F)F)cc1 [compound 4] | 81 to 100%
5 | CCOC(=O)c1ccc(NC(=O)NC(=O)c2c(F)cccc2F)cc1 [compound 5] | 41 to 60%
6 | O=C(NC(=O)c1c(F)c(F)c(F)c(F)c1F)Nc1c(F)c(F)c(F)c(F)c1F [compound 6] | 81 to 100%
7 | O=C(NC(=O)c1c(F)c(F)c(F)c(F)c1F)Nc1ccc(Cl)cc1 [compound 7] | 61 to 80%
8 | Nc1ccc(C(=O)NC(=O)Nc2ccccc2N)cc1 [compound 8] | 1 to 20%
9 | Nc1cc(N)c(Cl)c(C(=O)NC(=O)Nc2ccc(Cl)cc2)c1Cl [compound 9] | 21 to 40%
10 | O=C(NC(=O)c1ccccc1N1CCCCC1)Nc1ccc(C(F)(F)F)cc1 [compound 10] | 1 to 20%
11 | COc1ccc(NC(=O)NC(=O)c2c(F)cccc2N(C)C)cc1 [compound 11] | 81 to 100%
12 | CN(C)c1cccc(F)c1C(=O)NC(=O)Nc1c(F)c(F)c(F)c(F)c1F [compound 12] | 61 to 80%
13 | Nc1ccccc1C(=O)NC(=O)Nc1ccc(Cl)cc1 [compound 13] | 1 to 20%
14 | CC(Oc1ccc(NC(=O)NC(=O)c2c(F)cccc2F)cc1)c1ccncc1 (centres unmarked) [compound 14] | 61 to 80%
15 | CN(C)c1ccccc1C(=O)NC(=O)Nc1ccc(Cl)cc1 [compound 15] | 81 to 100%
16 | O=C(NC(=O)Nc1ccc(Cl)cc1)NC(=O)c1c(O)cccc1Cl [compound 16] | 61 to 80%
17 | CCN(CC)c1cccc(F)c1C(=O)NC(=O)Nc1ccc(Cl)cc1 [compound 17] | 21 to 40%

— patent publication EP0193249A2, “Benzoyl urea derivatives having ati-tumor activity” (DUPHAR INTERNATIONAL RESEARCH B.V, priority 1985, dated 1986)
